These are literature values, as cited in patent US20060246133A1, “Controlled release pharmaceutical compositions of liothyronine and methods of making and using the same” (priority 2005, published 2006).

For this data set the following is noted: when administered in an immediate release form.

As for `N[C@@H](Cc1cc(I)c(Oc2ccc(O)c(I)c2)c(I)c1)C(=O)O` [liothyronine], the half-life result was “about 10 hours”.
